From US10227331B2 (priority 2015, dated 2019) come the findings set out here.

For series [1], the target named is IMP-1 (Serratia marcescens, UniProt P52699). The series is described as follows: biochemical. The series is classed as biochemical. The following applies: CCF2-FA substrate, 2 hours at 25° C; read-out: IMP-1 IC50. The gist of the method:
(§1)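 Class B activity is measured in the presence of compound by fluorescence with CCF2-FA after a 2-hour incubation at 25° C. IC50 is taken from a 4-parameter fit of semi-logarithmic dose-response data.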

Series [2] addresses NDM-1 (Klebsiella pneumoniae, UniProt C7C422). Kind of series: biochemical. The series is classed as biochemical. Conditions: CCF2-FA substrate, 2 hours at 25° C; read-out: NDM-1 IC50. Summed up: as §1
Series [3] has as its system P. aeruginosa expressing IMP-1, efflux− (MB9799). The series is described as follows: Efflux: concentration of MBL inhibitor which restores susceptibility to imipenem. The format is cell-based, Pseudomonas aeruginosa. Conditions: imipenem at 2 μg/mL, in the presence of a class A, C, D serine β-lactamase inhibitor closely related to relebactam. An excerpt:
(§2) The strain background is Pseudomonas aeruginosa PAO1.

Series [4] concerns Escherichia coli expressing NDM-1 (CLB30005, CLB30016). The series is classed as cell-based. Conditions: with imipenem 1 μg/ml, 95% inhibition of bacterial growth. The gist of the method:
(§3)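 Clinical strains grown overnight on blood agar, then diluted 1:100 in 1.1× CAMHB and exposed to test compound with imipenem at 1 μg/ml. Incubation was 22–24 h at 35° C; growth was read by absorbance to find the compound concentration restoring imipenem susceptibility.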

Series [5] concerns Serratia marcescens expressing IMP-1 (CL5741). The format is cell-based. The following applies: with imipenem 1 μg/ml, 95% inhibition of bacterial growth. Summed up:
as §3

Series [6] relates to Klebsiella pneumoniae expressing VIM-1 (IHMA599644). The format is cell-based. The following applies: with imipenem 1 μg/ml, 95% inhibition of bacterial growth. Summed up: as §3
The target of series [7] is VIM-1 (Pseudomonas aeruginosa (strain ATCC 15692 / DSM 22644 / CIP 104116 / JCM 14847 / LMG 12228 / 1C / PRS 101 / PAO1), UniProt A0A0F7KYQ8). Kind of series: biochemical. Conditions: CCF2-FA substrate, 2 hours at 25° C. The gist of the method: as §1
Series [8] relates to P. aeruginosa expressing IMP-1, efflux+ (MB9798). The series is classed as cell-based, Pseudomonas aeruginosa. Conditions: for P. aeruginosa expressing IMP-1, efflux+ (MB9798) MITC95: imipenem at 2 μg/mL, in the presence of a class A, C, D serine β-lactamase inhibitor closely related to relebactam; for Efflux ratio: ratio MITC95 PA_9798/MITC95 PA_9799.
Description: as §2

Sequence of NDM-1 (C7C422 whole entry, looked up, species assumed): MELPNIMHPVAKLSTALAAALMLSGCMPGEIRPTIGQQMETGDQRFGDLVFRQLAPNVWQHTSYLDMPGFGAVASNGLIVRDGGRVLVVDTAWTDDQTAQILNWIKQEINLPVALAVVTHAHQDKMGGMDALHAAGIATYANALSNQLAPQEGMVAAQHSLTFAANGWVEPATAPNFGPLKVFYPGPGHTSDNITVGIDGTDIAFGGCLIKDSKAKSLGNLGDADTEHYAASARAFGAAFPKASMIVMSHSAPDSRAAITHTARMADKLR
Sequence of IMP-1 (P52699 whole entry, looked up, species assumed): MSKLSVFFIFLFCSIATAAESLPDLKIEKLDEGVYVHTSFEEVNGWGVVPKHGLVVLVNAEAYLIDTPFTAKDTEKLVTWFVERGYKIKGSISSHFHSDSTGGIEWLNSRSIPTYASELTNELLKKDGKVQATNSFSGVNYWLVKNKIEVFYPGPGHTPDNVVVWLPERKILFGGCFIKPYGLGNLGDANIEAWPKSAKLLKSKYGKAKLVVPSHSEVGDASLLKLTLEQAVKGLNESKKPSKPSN

The IC50 is the concentration needed to halve the response being measured. As to `Cn1ncc2cc(-c3ccc(S(=O)(=O)CCN)c(S(N)(=O)=O)c3-c3nnn[nH]3)ccc21.O=C(O)C(F)(F)F` [Example 160, 2-((4-(1-methyl-1H-indazol-5-yl)-2-sulfamoyl-3-(1H-tetrazol-5-yl)phenyl)sulfonyl)ethanaminium 2,2,2-trifluoroacetate], the IC50 in series [1] was determined as 0.568 nM; in series [2], 1.02 nM; in series [7] it was 0.375 nM. The “P. aeruginosa expressing IMP-1, efflux− (MB9799) MITC95” value in series [3] worked out at 1.563 µM. In addition, in series [4], the “Escherichia coli expressing NDM-1 (CLB30016) MITC95” value is 1.563 µM. Besides, the “Serratia marcescens expressing IMP-1 (CL5741) MITC95” value in series [5] was 3.125 µM. Further, the “Klebsiella pneumoniae expressing VIM-1 (IHMA599644) MITC95” value in series [6] was 6.25 µM. In series [8], the “P. aeruginosa expressing IMP-1, efflux+ (MB9798) MITC95” value came out at 12.5 µM. For the same compound, the Efflux ratio in series [8] is listed as 8.00.
For the compound `NC[C@@H](O)CS(=O)(=O)c1ccc(-c2cccc3sc(N)nc23)c(-c2nn[nH]n2)c1S(N)(=O)=O` [Example 352, (R)-6-((3-amino-2-hydroxypropyl)sulfonyl)-3-(2-aminobenzo[d]thiazol-4-yl)-2-(2H-tetrazol-5-yl) benzenesulfonamide], the concentration for half-maximal inhibition (IC50) in series [1] came to 0.145 nM; in series [2] it was 0.0658 nM; in series [7], 0.255 nM. For the same compound, the “P. aeruginosa expressing IMP-1, efflux− (MB9799) MITC95” value in series [3] is 0.7813 µM. Further, in series [4] (NDM-1 (CLB30016)), the “Escherichia coli MITC95” value worked out at 0.7813 µM. Further, the “Serratia marcescens MITC95” value in series [5] (IMP-1 (CL5741)) amounted to 0.7813 µM. For the same compound, the “Klebsiella pneumoniae MITC95” value in series [6] (VIM-1 (IHMA599644)) is 1.563 µM. The “P. aeruginosa expressing IMP-1, efflux+ (MB9798) MITC95” value in series [8] stood at 0.3906 µM.
As to `NCCS(=O)(=O)c1ccc(-c2cccc3c2nc(N)n3CC(F)(F)F)c(-c2nn[nH]n2)c1S(N)(=O)=O` [Example 18, 3-(2-Amino-1-(2,2,2-trifluoroethyl)-1H-benzo[d]imidazol-4-yl)-6-((2-aminoethyl)sulfonyl)-2-(2H-tetrazol-5-yl)benzenesulfonamide], the values for the IC50 in series [1], in series [2] and in series [7] were 0.227 nM, 0.442 nM and 0.361 nM, respectively. Besides, in series [3], the “P. aeruginosa expressing IMP-1, efflux− (MB9799) MITC95” value is 1.563 µM. In series [4], the “Escherichia coli expressing NDM-1 (CLB30016) MITC95” value was 1.563 µM. In addition, the “Serratia marcescens expressing IMP-1 (CL5741) MITC95” value in series [5] came to 3.125 µM. Besides, in series [6], the “Klebsiella pneumoniae expressing VIM-1 (IHMA599644) MITC95” value worked out at 3.125 µM. The “P. aeruginosa expressing IMP-1, efflux+ (MB9798) MITC95” value in series [8] was 3.125 µM. Moreover, the Efflux ratio in series [8] was determined as 2.00.
For the compound `Nc1cc2cccc(-c3ccc(S(=O)(=O)C4CNC4)c(S(N)(=O)=O)c3-c3nn[nH]n3)c2cn1` [Example 35, 3-(3-aminoisoquinolin-8-yl)-6-(azetidin-3-ylsulfonyl)-2-(2H-tetrazol-5-yl)benzenesulfonamide], the IC50 in series [1] turned out to be 0.503 nM; in series [2], 0.0695 nM; in series [7] it was 0.243 nM. Besides, the “P. aeruginosa expressing IMP-1, efflux− (MB9799) MITC95” value in series [3] amounted to 1.563 µM. The “Escherichia coli expressing NDM-1 (CLB30016) MITC95” value in series [4] worked out at 1.563 µM. The “Serratia marcescens expressing IMP-1 (CL5741) MITC95” value in series [5] turned out to be 1.563 µM. In series [6], the “Klebsiella pneumoniae expressing VIM-1 (IHMA599644) MITC95” value was 6.25 µM. The “P. aeruginosa expressing IMP-1, efflux+ (MB9798) MITC95” value in series [8] came out at 1.563 µM. For the same compound, in series [8], the Efflux ratio was found to be 1.00.
Consider `Cc1nnc2ccc(-c3ccc(S(=O)(=O)CCN)c(S(N)(=O)=O)c3-c3nnn[nH]3)cn12.O=C(O)C(F)(F)F` [Example 133, 2-((4-(3-methyl-[1,2,4]triazolo[4,3-a]pyridin-6-yl)-2-sulfamoyl-3-(1H-tetrazol-5-yl)phenyl)sulfonyl)ethanaminium 2,2,2-trifluoroacetate], for which the IC50 in series [1] worked out at 29.4 nM; in series [2], 15.6 nM; in series [7], 0.968 nM. Further, the “P. aeruginosa expressing IMP-1, efflux− (MB9799) MITC95” value in series [3] stood at 3.125 µM. Also, in series [4], the “Escherichia coli expressing NDM-1 (CLB30016) MITC95” value turned out to be 6.25 µM. The “Serratia marcescens expressing IMP-1 (CL5741) MITC95” value in series [5] amounted to 6.25 µM. Besides, in series [6], the “Klebsiella pneumoniae expressing VIM-1 (IHMA599644) MITC95” value came out at 6.25 µM. The “P. aeruginosa expressing IMP-1, efflux+ (MB9798) MITC95” value in series [8] was 200 µM. For the same compound, in series [8], the Efflux ratio is on record as 64.00.
